The supplement of paper PMC10307832

Assays:
Assay in all cases: relative viability (nuclei count vs DMSO), 5 days (fraction); higher = more cells survive
[1] = compound: O=c1[nH]cc(F)c(=O)[nH]1 [5-Fluorouracil] + O=C(CCCCCCC(=O)Nc1ccccc1)NO [Vorinostat] (partner 1 µM)
Method in brief: (§1)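 Relative viability was taken as the ratio of nuclei in treated wells to nuclei in vehicle wells. Lung cancer cell lines in 1536-well plates received compounds by pin tool one day after seeding, either one drug alone or a fixed anchor-drug dose plus five library-drug doses (not always all listed) in √10 steps. Nuclei were counted on 4× images after 5 days of treatment, and values are medians of duplicate plates.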

Staurosporine + OSI-027 = compound: CN[C@@H]1C[C@H]2O[C@@](C)([C@@H]1OC)n1c3ccccc3c3c4c(c5c6ccccc6n2c5c31)C(=O)NC4 [Staurosporine] + COc1cccc2cc(-c3nc([C@H]4CC[C@H](C(=O)O)CC4)n4ncnc(N)c34)[nH]c12 [OSI-027] (partner 0.5 µM)
Method in brief: as §1

Sulindac + Crizotinib = compound: CC1=C(CC(=O)O)c2cc(F)ccc2/C1=C\c1ccc([S+](C)[O-])cc1 [Sulindac] + C[C@@H](Oc1cc(-c2cnn(C3CCNCC3)c2)cnc1N)c1c(Cl)ccc(F)c1Cl [Crizotinib] (partner 1 µM)
Method in brief: as §1

Sulindac + Luminespib = compound: CC1=C(CC(=O)O)c2cc(F)ccc2/C1=C\c1ccc([S+](C)[O-])cc1 [Sulindac] + CCNC(=O)c1noc(-c2cc(C(C)C)c(O)cc2O)c1-c1ccc(CN2CCOCC2)cc1 [Luminespib] (partner 0.01 µM)
Method in brief: as §1

| Cell Line | relative viability ([1]; first compound 0.02 µM) | relative viability ([1]; first compound 0.2 µM) | relative viability ([1]; first compound 0.6325 µM) | relative viability ([1]; first compound 2 µM) | relative viability (Staurosporine + OSI-027; first compound 0.005 µM) | relative viability (Staurosporine + OSI-027; first compound 0.01581 µM) | relative viability (Staurosporine + OSI-027; first compound 0.05 µM) | relative viability (Staurosporine + OSI-027; first compound 0.1581 µM) | relative viability (Sulindac + Crizotinib; first compound 0.08 µM) | relative viability (Sulindac + Crizotinib; first compound 0.253 µM) | relative viability (Sulindac + Crizotinib; first compound 0.8 µM) | relative viability (Sulindac + Crizotinib; first compound 2.53 µM) | relative viability (Sulindac + Crizotinib; first compound 8 µM) | relative viability (Sulindac + Luminespib; first compound 0.08 µM) | relative viability (Sulindac + Luminespib; first compound 0.253 µM) | relative viability (Sulindac + Luminespib; first compound 0.8 µM) | relative viability (Sulindac + Luminespib; first compound 2.53 µM) | relative viability (Sulindac + Luminespib; first compound 8 µM) | relative viability (Staurosporine + OSI-027; first compound 0.5 µM) |
| --- | --- | --- | --- | --- | --- | --- | --- | --- | --- | --- | --- | --- | --- | --- | --- | --- | --- | --- | --- |
| 201T | 1.04 | 0.54 | 0.287 | 0.228 | 0.462 | 0.338 | 0.454 | 0.247 | 0.954 | 1.03 | 1.08 | 1.01 | 1.13 | 1.13 | 1.09 | 1.07 | 1.04 | 1.09 | – |
| A549 | – | – | – | – | – | – | – | – | 1.13 | 0.783 | 0.651 | 0.892 | 0.924 | – | – | – | – | – | – |
| A-427 | 0.812 | 0.921 | 0.783 | 0.419 | 0.363 | 0.158 | 0.153 | – | 0.892 | 0.888 | 0.881 | 0.894 | 0.896 | 1.05 | 0.835 | 1.06 | 0.781 | 1.07 | 0.121 |
| ABC-1 | 0.982 | 1.24 | 0.963 | 0.834 | 0.209 | 0.14 | 0.0972 | 0.0855 | 1.44 | 1.03 | 0.809 | 1.19 | 1.6 | 0.397 | 0.415 | 0.687 | – | 0.71 | 0.0778 |
| BEN | 0.566 | 0.641 | 0.579 | 0.633 | 0.386 | 0.287 | 0.275 | 0.247 | 0.994 | 0.903 | 0.648 | 0.984 | 1.13 | 0.23 | 0.373 | 0.597 | 0.472 | 0.326 | 0.193 |
| CAL-12T | 0.759 | 0.591 | 0.563 | 0.447 | 0.196 | 0.142 | 0.166 | 0.152 | 0.689 | 0.661 | 0.563 | 0.629 | 0.797 | 0.556 | 0.3 | 0.311 | 0.485 | 0.524 | 0.09 |
| COR-L23 | 0.455 | 0.372 | 0.239 | 0.159 | 0.462 | 0.381 | 0.199 | 0.104 | 0.711 | 0.783 | – | 0.613 | 0.82 | 0.903 | 0.555 | 0.508 | 0.739 | 0.952 | 0.0775 |
| COR-L 105 | 0.718 | 0.881 | 0.771 | 0.626 | 0.279 | 0.173 | 0.269 | 0.266 | 0.957 | 0.901 | 0.759 | 0.776 | 0.911 | 0.677 | 0.66 | 0.724 | 0.793 | 0.792 | 0.183 |
| Calu-6 | – | – | – | – | – | – | – | – | 0.951 | 0.883 | 0.637 | 0.853 | 0.969 | – | – | – | – | – | – |
| ChaGo-K-1 | 0.814 | 0.687 | 0.622 | 0.384 | 0.678 | 0.203 | 0.553 | 0.135 | 1.34 | 1.17 | 0.769 | 1.28 | 1.31 | 0.526 | 0.584 | 0.637 | 0.587 | 0.405 | 0.118 |
| EBC-1 | – | – | – | – | – | – | – | – | 0.188 | 0.196 | – | 0.178 | 0.201 | – | – | – | – | – | – |
| EKVX | 0.69 | 0.328 | – | – | 0.557 | 0.399 | 0.284 | 0.209 | 1.17 | 0.871 | 0.692 | 0.907 | 0.947 | 0.755 | 0.792 | 0.768 | 0.887 | 0.897 | 0.15 |
| EMC-BAC-2 | 0.448 | 0.566 | 0.463 | 0.226 | 0.211 | 0.177 | 0.161 | 0.224 | 0.788 | 0.778 | 0.585 | 0.779 | 0.91 | 1.04 | 1.23 | 0.802 | 1.23 | 1.22 | 0.177 |
| EPLC-272H | 0.621 | 0.401 | 0.279 | 0.241 | 0.29 | 0.142 | 0.163 | 0.0783 | 0.932 | – | 0.948 | 0.551 | 0.977 | 0.211 | 0.167 | – | 0.262 | 0.255 | 0.0871 |
| H3255 | 0.798 | 0.77 | 0.734 | 0.537 | 0.408 | 0.339 | 0.265 | 0.216 | 0.829 | 1.04 | 0.891 | 0.917 | 1.05 | 0.85 | 0.958 | 0.847 | 0.954 | 1.05 | 0.182 |
| HARA | 0.517 | 0.39 | 0.281 | 0.16 | 0.448 | – | 0.128 | 0.0628 | 1.1 | 1.29 | – | 1.21 | 1.07 | 0.731 | 1 | 0.77 | 0.671 | 0.963 | 0.0398 |
| HCC-15 | 0.952 | 0.912 | 0.554 | 0.327 | 0.565 | – | 0.296 | 0.113 | 0.952 | 0.934 | 0.647 | 0.834 | 0.883 | 0.588 | 0.351 | 0.304 | 0.431 | 0.389 | 0.0919 |
| HCC-44 | 1.09 | 1.07 | 0.824 | 0.544 | 0.358 | 0.131 | 0.212 | 0.174 | 0.892 | 0.88 | 0.768 | 0.9 | 0.861 | 0.969 | 1.08 | – | 1.05 | 1.25 | 0.136 |
| HCC-78 | 0.463 | 0.426 | 0.325 | 0.232 | 0.361 | 0.37 | 0.308 | 0.336 | 0.305 | 0.326 | 0.327 | 0.296 | 0.401 | – | – | – | – | – | 0.296 |
| HCC-366 | 0.371 | 0.365 | 0.156 | 0.0639 | 0.952 | – | 0.463 | 0.0332 | 0.378 | 0.599 | 0.446 | 0.497 | 0.729 | – | – | – | – | – | 0.0243 |
